The values below come from PMC7139824, “Molecular Mechanisms of PARP-1 Inhibitor 7-Methylguanine” (International Journal of Molecular Sciences, 2020).

The target in test [1] is T1, poly(ADP-ribose) polymerase 1 (PARP-1) (Homo sapiens, UniProt P09874).
T1 construct: gene PARP1
Briefly: fluorescence anisotropy kinetics, reaction rate vs NAD+ concentration ([…]). It counts as biochemical. (In general: Polarisation of emitted light reports the rotation of a fluorescent probe.)

Test [2] has as its target T1, poly(ADP-ribose) polymerase 1 (PARP-1). Briefly: real-time fluorescence anisotropy activity assay, purified PARP-1 with DNA duplex; competitive kinetics vs NAD+. It counts as biochemical.

T1 sequence (P09874 2-1014): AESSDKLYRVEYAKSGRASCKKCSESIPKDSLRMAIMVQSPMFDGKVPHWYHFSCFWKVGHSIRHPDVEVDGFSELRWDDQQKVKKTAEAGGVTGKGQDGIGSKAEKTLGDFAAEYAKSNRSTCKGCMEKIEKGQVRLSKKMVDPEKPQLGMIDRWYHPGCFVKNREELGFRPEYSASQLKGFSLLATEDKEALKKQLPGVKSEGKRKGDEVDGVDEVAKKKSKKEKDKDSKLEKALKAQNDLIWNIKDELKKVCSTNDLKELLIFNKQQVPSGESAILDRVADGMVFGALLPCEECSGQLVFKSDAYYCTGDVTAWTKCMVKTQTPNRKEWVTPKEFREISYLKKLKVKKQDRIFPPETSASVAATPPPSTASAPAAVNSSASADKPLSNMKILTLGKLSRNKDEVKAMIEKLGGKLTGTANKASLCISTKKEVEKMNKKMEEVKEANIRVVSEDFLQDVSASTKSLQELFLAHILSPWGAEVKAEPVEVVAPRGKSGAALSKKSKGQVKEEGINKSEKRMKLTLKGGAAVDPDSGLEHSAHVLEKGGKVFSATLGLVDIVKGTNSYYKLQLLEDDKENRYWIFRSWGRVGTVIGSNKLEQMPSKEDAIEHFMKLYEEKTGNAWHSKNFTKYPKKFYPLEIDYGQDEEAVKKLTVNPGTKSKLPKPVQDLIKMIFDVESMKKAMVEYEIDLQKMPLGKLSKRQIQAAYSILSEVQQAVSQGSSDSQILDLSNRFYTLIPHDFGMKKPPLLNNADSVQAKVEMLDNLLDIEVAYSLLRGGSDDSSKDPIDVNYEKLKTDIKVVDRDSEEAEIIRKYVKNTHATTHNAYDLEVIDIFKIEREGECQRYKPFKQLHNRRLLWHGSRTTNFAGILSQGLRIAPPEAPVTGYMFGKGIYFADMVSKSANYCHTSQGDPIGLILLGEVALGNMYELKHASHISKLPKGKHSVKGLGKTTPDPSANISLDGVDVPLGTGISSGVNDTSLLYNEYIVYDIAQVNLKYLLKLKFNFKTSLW

`NC(=O)c1ccc[n+]([C@@H]2O[C@H](COP(=O)([O-])OP(=O)(O)OC[C@H]3O[C@@H](n4cnc5c(N)ncnc54)[C@H](O)[C@@H]3O)[C@@H](O)[C@H]2O)c1` [NAD^+]: the “fluorescence anisotropy kinetics, reaction rate vs NAD+ concentration (0-2500 μM)” value in test [1] is listed as “Dependence of the PARP-1-catalyzed reaction rate on the NAD^+ concentration at different concentrations of 7-MG”.

Usually Ki stands for a measure of affinity in units of concentration, obtained from inhibition or displacement. Read a low Ki as a stronger hold on the target. Turning to `Cn1cnc2nc(N)[nH]c(=O)c21` [7-MG, 7-methylguanine], affinity in test [2] was put at a Ki of 61 ± 9 µM.
